Assay results from US20070117770A1, “Human ribosomal DNA (rDNA) and ribosomal RNA (rRNA) nucleic acids and uses thereof” (Cylene Pharmaceuticals, Inc., priority 2005, published 2007).

Key:
[1] = target: CDK5/p35(h) (Homo sapiens, UniProt Q00535); assay: Protein kinase inhibition assay; type: biochemical; conditions: read-out: percent residual activity of CDK5/p35(h)
Procedure: (§1) Certain compounds were tested for activity in protein kinase inhibition assays. All substrates were dissolved and diluted to working stocks in de-ionized water, apart from histone H1 (10× working stock in 20 mM MOPS pH 7.0), PDKtide (10× working stock in 50 mM Tris pH 7.0) ATF2 (which is typically stored at a 20× working stock in 50 mM Tris pH 7.5, 150 mM NaCl, 0.1 mM EGTA, 0.03% Brij-35, 50% glycerol, 1 mM benzamidine, 0.2 mM PMSF and 0.1% R-mercaptoethanol), KKLNRTLSFAEPG (SEQ ID NO:203) and RRRLSFAEPG (SEQ ID NO:204) (50 mM HEPES pH 7.4) and GGEEEEYFELVKKKK (SEQ ID NO:205) (20 mM MOPS pH 7.0). All kinases were pre-diluted to a 10× working concentration prior to addition into the assay. The composition of the dilution buffer for each kinase is detailed below.
(§2) In a final reaction volume of 25 μl, CDK5/p35 (h) (5-10 mU) is incubated with 8 mM MOPS pH 7.0, 0.2 mM EDTA, 0.1 mg/ml histone H1, 10 mM MgAcetate and [gamma-33P-ATP] (specific activity approx. 500 cpm/pmol, concentration as required). The reaction is initiated by the addition of the MgATP mix. After incubation for 40 minutes at room temperature, the reaction is stopped by the addition of 5 μl of a 3% phosphoric acid solution. 10 μl of the reaction is then spotted onto a P30 filtermat and washed three times for 5 minutes in 75 mM phosphoric acid and once in methanol prior to drying and scintillation counting.

[2] = target: DDR2(h) (Homo sapiens, UniProt Q16832); assay: Protein kinase inhibition assay; type: biochemical; conditions: read-out: percent residual activity of DDR2(h)
Sequence of DDR2(h) (Q16832 22-855): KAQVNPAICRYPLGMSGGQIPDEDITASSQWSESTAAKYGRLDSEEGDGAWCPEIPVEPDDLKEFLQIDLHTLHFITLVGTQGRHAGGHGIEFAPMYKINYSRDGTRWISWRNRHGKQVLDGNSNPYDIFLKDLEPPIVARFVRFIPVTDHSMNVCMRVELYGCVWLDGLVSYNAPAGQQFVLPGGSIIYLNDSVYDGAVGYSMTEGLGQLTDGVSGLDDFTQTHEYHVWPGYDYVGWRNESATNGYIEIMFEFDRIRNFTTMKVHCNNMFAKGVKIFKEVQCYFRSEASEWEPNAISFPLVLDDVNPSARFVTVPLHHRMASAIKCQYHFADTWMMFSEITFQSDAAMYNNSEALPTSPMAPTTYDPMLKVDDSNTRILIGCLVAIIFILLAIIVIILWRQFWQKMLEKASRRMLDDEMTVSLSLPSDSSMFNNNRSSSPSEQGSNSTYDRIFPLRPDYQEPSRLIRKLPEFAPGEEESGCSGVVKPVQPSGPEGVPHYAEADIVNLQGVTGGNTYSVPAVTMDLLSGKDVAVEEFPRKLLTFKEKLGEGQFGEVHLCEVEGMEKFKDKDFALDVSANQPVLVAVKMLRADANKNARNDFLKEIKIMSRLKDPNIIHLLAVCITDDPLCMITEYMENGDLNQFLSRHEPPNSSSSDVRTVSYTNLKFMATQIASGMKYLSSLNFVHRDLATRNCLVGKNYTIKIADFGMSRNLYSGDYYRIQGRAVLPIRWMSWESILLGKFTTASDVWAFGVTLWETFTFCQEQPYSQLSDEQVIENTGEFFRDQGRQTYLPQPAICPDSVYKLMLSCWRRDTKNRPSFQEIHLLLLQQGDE
Procedure: as §1
In a final reaction volume of 25 μl, DDR2 (h) (5-10 mU) is incubated with 8 mM MOPS pH 7.0, 0.2 mM EDTA, 250 μM KKSRGDYMTMQIG (SEQ ID NO:210), 10 mM MnCl2, 10 mM MgAcetate and [y-33P-ATP] (specific activity approx. 500 cpm/pmol, concentration as required). The reaction is initiated by the addition of the MgATP mix. After incubation for 40 minutes at room temperature, the reaction is stopped by the addition of 5 μl of a 3% phosphoric acid solution. […]

[3] = target: EphB2(h) (Homo sapiens, UniProt P29323); assay: Protein kinase inhibition assay; type: biochemical; conditions: read-out: percent residual activity of EphB2(h)
Sequence of EphB2(h) (P29323 19-1055): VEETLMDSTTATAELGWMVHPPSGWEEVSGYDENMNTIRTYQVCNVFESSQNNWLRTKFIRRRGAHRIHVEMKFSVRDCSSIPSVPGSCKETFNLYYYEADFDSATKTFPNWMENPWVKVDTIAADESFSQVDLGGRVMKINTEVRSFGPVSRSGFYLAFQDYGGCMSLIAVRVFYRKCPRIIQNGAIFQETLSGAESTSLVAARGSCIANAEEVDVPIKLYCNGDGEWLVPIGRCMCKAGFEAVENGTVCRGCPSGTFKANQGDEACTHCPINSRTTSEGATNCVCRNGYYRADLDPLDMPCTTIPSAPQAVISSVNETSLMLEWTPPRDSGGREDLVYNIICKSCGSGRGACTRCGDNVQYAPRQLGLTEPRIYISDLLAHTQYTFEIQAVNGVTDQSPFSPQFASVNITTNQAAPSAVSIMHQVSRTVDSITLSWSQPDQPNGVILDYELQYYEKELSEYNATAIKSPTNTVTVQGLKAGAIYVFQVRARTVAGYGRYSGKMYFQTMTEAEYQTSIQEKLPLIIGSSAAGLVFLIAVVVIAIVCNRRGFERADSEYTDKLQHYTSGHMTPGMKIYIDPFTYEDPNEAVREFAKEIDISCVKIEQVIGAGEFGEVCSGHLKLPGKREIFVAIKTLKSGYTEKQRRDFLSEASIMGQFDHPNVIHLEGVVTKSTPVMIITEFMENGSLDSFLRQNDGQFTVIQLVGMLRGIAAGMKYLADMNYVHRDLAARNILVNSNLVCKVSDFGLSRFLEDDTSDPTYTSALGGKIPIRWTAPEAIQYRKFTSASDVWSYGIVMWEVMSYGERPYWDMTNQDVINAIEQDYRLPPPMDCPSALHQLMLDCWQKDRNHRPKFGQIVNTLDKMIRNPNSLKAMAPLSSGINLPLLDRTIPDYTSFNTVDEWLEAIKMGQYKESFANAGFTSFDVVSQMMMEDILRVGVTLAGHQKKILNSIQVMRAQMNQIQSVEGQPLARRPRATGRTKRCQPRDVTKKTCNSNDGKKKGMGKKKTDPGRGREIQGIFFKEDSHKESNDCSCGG
Procedure: as §1
as §2, with “EphB2” for “CDK5/p35”, “EDTA, 10 mM MnCl2,” for “EDTA,”, “poly(Glu, Tyr) 4:1,” for “histone H1,”, “Filtermat A” for “P30 filtermat”

[4] = target: Pim-1(h) (Homo sapiens, UniProt P11309); assay: Protein kinase inhibition assay; type: biochemical; conditions: read-out: percent residual activity of Pim-1(h)
Sequence of Pim-1(h) (P11309 whole entry): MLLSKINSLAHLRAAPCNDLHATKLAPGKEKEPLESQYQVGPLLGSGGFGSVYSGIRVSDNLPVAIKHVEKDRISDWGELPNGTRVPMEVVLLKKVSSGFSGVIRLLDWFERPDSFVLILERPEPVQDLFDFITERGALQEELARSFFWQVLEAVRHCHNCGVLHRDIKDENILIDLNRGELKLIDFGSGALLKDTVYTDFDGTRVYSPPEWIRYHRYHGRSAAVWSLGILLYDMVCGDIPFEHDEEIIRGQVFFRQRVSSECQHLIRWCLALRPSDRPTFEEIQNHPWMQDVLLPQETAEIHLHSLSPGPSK
Procedure: as §1
as §2, with “Pim-1” for “CDK5/p35”, “100 μM KKRNRTLTV (SEQ ID NO:219),” for “0.1 mg/ml histone H1,”

[5] = target: PKA(h) (Homo sapiens, UniProt P17612); assay: Protein kinase inhibition assay; type: biochemical; conditions: read-out: percent residual activity of PKA(h)
Procedure: as §1
as §2, with “PKA” for “CDK5/p35”, “30 μM LRRASLG (SEQ ID NO:209) (Kemptide),” for “0.1 mg/ml histone H1,”, “[y-33P-ATP]” for “[gamma-33P-ATP]”, “50” for “75”

[6] = tested on: c-myc mRNA in HCT116 cells; assay: RNA Polymerase II-dependent RNA synthesis (c-myc mRNA, Taqman qRT-PCR); type: cell-based; conditions: at the tested concentrations
Procedure: Effects of compound A-1 and compound B-1 on DNA synthesis, RNA synthesis and protein synthesis were determined in HCT116 cells. HCT116 cells were plated overnight at 100,000 cells per mL. Next day cells were treated with increasing amounts of either compound A-1 or compound B-1 followed by one hour incubation with BrdU label (from a BrdU Cell proliferation Assay Kit, Calbiochem) to monitor DNA synthesis; […] of ^3H-uridine to monitor total RNA synthesis; […] of ^3H-methionine to monitor protein synthesis or plain media to monitor RNA Polymerase II-dependent RNA synthesis. DNA synthesis was assessed using a BrdU-ELISA (BrdU Cell proliferation Assay Kit, Calbiochem). To measure total RNA synthesis, total RNA from treated cells was isolated with a RNease kit (QIAGEN), levels of total RNA were assessed with Ribogreen reagent (Invitrogen) and the newly synthesized tritiated RNA was measured in a scintillation Counter (Perkin Elmer). To measure effects on protein synthesis, cells were lysed in a RIPA buffer, and total protein was precipitated with 10% TCA on a glass-filters. Newly synthesized tritiated protein was measured in a scintillation Counter (Perkin Elmer). Effects of drugs on […] RNA synthesis were assessed by monitoring levels of a c-myc mRNA, which has a relatively short half-life of approximately 30 minutes, by Taqman qRT-PCR (ABI).

Sequence of CDK5/p35(h) (Q00535 whole entry): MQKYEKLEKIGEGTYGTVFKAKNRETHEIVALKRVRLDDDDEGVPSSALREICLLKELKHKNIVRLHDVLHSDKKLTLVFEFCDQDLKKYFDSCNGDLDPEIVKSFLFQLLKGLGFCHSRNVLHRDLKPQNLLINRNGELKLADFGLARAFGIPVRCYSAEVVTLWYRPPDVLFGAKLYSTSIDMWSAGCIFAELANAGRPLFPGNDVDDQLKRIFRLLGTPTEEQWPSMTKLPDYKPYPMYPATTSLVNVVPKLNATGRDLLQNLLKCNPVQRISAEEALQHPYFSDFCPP
Sequence of CDK5/p35(h) (Q15078 whole entry partner): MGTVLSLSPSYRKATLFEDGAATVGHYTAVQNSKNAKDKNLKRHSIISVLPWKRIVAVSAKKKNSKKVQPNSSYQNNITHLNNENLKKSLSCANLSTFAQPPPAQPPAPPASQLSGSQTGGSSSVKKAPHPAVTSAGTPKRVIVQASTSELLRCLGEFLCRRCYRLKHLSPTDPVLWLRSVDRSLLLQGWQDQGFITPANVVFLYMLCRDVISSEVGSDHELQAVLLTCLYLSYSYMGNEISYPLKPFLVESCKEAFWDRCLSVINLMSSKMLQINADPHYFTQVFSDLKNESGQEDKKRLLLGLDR

Row | remaining activity at 2.5 µM [1] | remaining activity at 2.5 µM [2] | remaining activity at 2.5 µM [3] | remaining activity at 2.5 µM [4] | remaining activity at 2.5 µM [5] | Compound | effect on c-myc mRNA levels [6]
1 | 104% | 95% | 106% | 104% | 97% | CC(=O)N1CCN(c2ccc3c(=O)c(C(=O)NCCN4CCCC4)c4n(C)c5ccccc5n4c3n2)CC1 [Compound B-1] | no measureable effect
2 | 83% | 77% | 96% | 30% | 105% | CN1CCCC1CCNC(=O)c1cn2c3c(c(N4CCC(c5cnccn5)C4)c(F)cc3c1=O)Oc1cc3ccccc3cc1-2 (stereo not drawn) [Compound A-1] | no measureable effect
